# Laboratory results published in PMC8597046, “Use of Mixture Dosing and Nonlinear Mixed Effect Modeling of Eight Environmental Contaminants in Rabbits to Improve Extrapolation Value of Toxicokinetic Data” (Environmental Health Perspectives, 2021).
# Key:
# [1] = rodents; ref Kudo and Kawashima 2003; cited from earlier work
# [2] = TK assay, oral mixture dosing: serum concentrations and noncompartmental analysis (sparse data); details: female, rabbit, in vivo, po
# Procedure, shortened: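 Female New Zealand white rabbits (10-wk, 2.37±0.14kg) got the compound mixture IV via ear-vein catheter or orally into the mouth; serum sampled 15 min to 28 d, 3 (or 6 at 30 min) rabbits per time. Sparse-data noncompartmental analysis gave AUC (linear trapezoidal), CL or CL_F, half-life and F.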
# [3] = Estimation of loading and daily maintenance doses and NLME model simulations; design: species or system female rabbits; details: oral
# Procedure, shortened: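 Loading and daily maintenance doses computed from TK equations for a nominal CSS of 1 ng/mL, then scaled to oral doses for female rabbits. NLME model simulated central and peripheral compartment amounts over repeated daily maintenance dosing.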
# [4] = TK assay, intravenous mixture dosing: serum concentrations and noncompartmental analysis (sparse data); details: female, rabbit, in vivo, iv; for Vd: IV mixture dosing, NCA, n=12
# Procedure, shortened: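 Female New Zealand white rabbits received a compound mixture IV via ear-vein catheter; serum sampled sparsely (3 rabbits/time point) from 15 min to 28 d. Noncompartmental sparse-data analysis on mean profiles: linear-trapezoidal AUC, CL as dose/AUC0−inf, half-life from λZ, MRT and VSS.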
# [5] = New Zealand white (INRA 1777 line)
structure (smiles),measurement,setting,value
"O=C(O)C(F)(F)C(F)(F)C(F)(F)C(F)(F)C(F)(F)C(F)(F)C(F)(F)F [PFOA, perfluorooctanoic acid]",Intestinal absorption,[1],93%
same,AUC(0-inf),[2]; [5],169 µM·h
same,CL/F,[2]; [5],0.0953 mL/min/kg
same,Cmax,[2]; [5],9070 nM
same,MRT,[2]; [5],25.9 h
same,Tmax,[2]; [5],4.05 h
same,Vd/F,[2]; [5],0.64 L/kg
same,bioavailability,[2]; [5],> 100%
same,half-life,[2]; [5],77.6 h
same,concentration at 4.3 h,"[2]; New Zealand white (INRA 1777 line), Serum concentration, oral, rabbit 13, 4.30 h, MEHP after oral DEHP",6040 nM
same,concentration at 24 h,"[2]; New Zealand white (INRA 1777 line), Serum concentration, oral, rabbit 13, […], MEHP after oral DEHP",2510 nM
same,concentration at 0.37 h,"[2]; New Zealand white (INRA 1777 line), Serum concentration, oral, rabbit 14, 0.37 h, MEHP after oral DEHP",4790 nM
same,concentration at 4.17 h,"[2]; New Zealand white (INRA 1777 line), Serum concentration, oral, rabbit 14, 4.17 h, MEHP after oral DEHP",6700 nM
same,concentration at 24 h,"[2]; New Zealand white (INRA 1777 line), Serum concentration, oral, rabbit 14, […], MEHP after oral DEHP",1530 nM
same,concentration at 4.05 h,"[2]; New Zealand white (INRA 1777 line), Serum concentration, oral, rabbit 15, 4.05 h, MEHP after oral DEHP",9070 nM
same,concentration at 23.98 h,"[2]; New Zealand white (INRA 1777 line), Serum concentration, oral, rabbit 15, 23.98 h, MEHP after oral DEHP",2340 nM
same,concentration at 12 h,"[2]; New Zealand white (INRA 1777 line), Serum concentration, oral, rabbit 21, 12.00 h, MEHP after oral DEHP",3940 nM
same,concentration at 168 h,"[2]; New Zealand white (INRA 1777 line), Serum concentration, rabbit 21, 168.00 h",9.3 nM
same,concentration at 672.02 h,"[2]; New Zealand white (INRA 1777 line), Serum concentration, rabbit 22, 672.02 h",0.5 nM
same,concentration at 671.96 h,"[2]; New Zealand white (INRA 1777 line), Serum concentration, rabbit 23, 671.96 h",0.26 nM
same,concentration at 672.02 h,"[2]; New Zealand white (INRA 1777 line), Serum concentration, rabbit 24, 672.02 h",0.49 nM
same,concentration at 0.55 h,"[2]; New Zealand white, Serum concentration, oral, rabbit 16, 0.55 h, MEHP after oral DEHP",2520 nM
same,concentration at 72 h,"[2]; New Zealand white, Serum concentration, oral, rabbit 16, 72.00 h, MEHP after oral DEHP",110 nM
same,concentration at 0.53 h,"[2]; New Zealand white, Serum concentration, oral, rabbit 17, 0.53 h, MEHP after oral DEHP",2350 nM
same,concentration at 72 h,"[2]; New Zealand white, Serum concentration, oral, rabbit 17, 72.00 h, MEHP after oral DEHP",230 nM
same,concentration at 0.55 h,"[2]; New Zealand white, Serum concentration, oral, rabbit 18, 0.55 h, MEHP after oral DEHP",4200 nM
same,concentration at 71.96 h,"[2]; New Zealand white, Serum concentration, oral, rabbit 18, 71.96 h, MEHP after oral DEHP",78 nM
same,concentration at 12 h,"[2]; New Zealand white, Serum concentration, oral, rabbit 19, 12.00 h, MEHP after oral DEHP",4880 nM
same,concentration at 12 h,"[2]; New Zealand white, Serum concentration, oral, rabbit 20, 12.00 h, MEHP after oral DEHP",3200 nM
same,concentration at 168.02 h,"[2]; New Zealand white, Serum concentration, rabbit 19, 168.02 h",32 nM
same,concentration at 168 h,"[2]; New Zealand white, Serum concentration, rabbit 20, 168.00 h",5 nM
same,Computed maintenance dose,"[3]; daily, scaled to the targeted CSS of Table 6",9.5 µg/kg
same,Computed loading dose,[3]; scaled to the targeted CSS of Table 6,10 µg/kg
same,Daily maintenance dose,"[3]; to maintain serum concentration of 1 ng/mL, daily CL×Css/F, DEHP dose for MEHP in serum",0.18 µg/kg
same,Loading dose,"[3]; to rapidly attain serum concentration of 1 ng/mL, Vss×Css/F, DEHP dose for MEHP in serum",0.19 µg/kg
same,AUC(0-inf),[4]; [5],27.4 µM·h
same,Cmax,[4]; [5],2330 nM
same,MRT,[4]; [5],18.7 h
same,clearance,[4]; [5],0.121 mL/min/kg
same,half-life,[4]; [5],31.8 h
same,Vd,"[4]; New Zealand white (INRA 1777 line), VSS",0.135 L/kg
same,Vd,"[4]; New Zealand white (INRA 1777 line), VZ",0.332 L/kg
same,concentration at 0.3 h,"[4]; New Zealand white, Serum concentration, rabbit 1, 0.30 h",1870 nM
same,concentration at 4.38 h,"[4]; New Zealand white, Serum concentration, rabbit 1, 4.38 h",1070 nM
same,concentration at 24.03 h,"[4]; New Zealand white, Serum concentration, rabbit 1, 24.03 h",240 nM
same,concentration at 0.28 h,"[4]; New Zealand white, Serum concentration, rabbit 2, 0.28 h",2100 nM
same,concentration at 4.05 h,"[4]; New Zealand white, Serum concentration, rabbit 2, 4.05 h",1020 nM
same,concentration at 24 h,"[4]; New Zealand white, Serum concentration, rabbit 2, […]",160 nM
same,concentration at 0.35 h,"[4]; New Zealand white, Serum concentration, rabbit 3, 0.35 h",2330 nM
same,concentration at 4.05 h,"[4]; New Zealand white, Serum concentration, rabbit 3, 4.05 h",1450 nM
same,concentration at 24 h,"[4]; New Zealand white, Serum concentration, rabbit 3, […]",290 nM
same,concentration at 0.62 h,"[4]; New Zealand white, Serum concentration, rabbit 4, 0.62 h",1700 nM
same,concentration at 72 h,"[4]; New Zealand white, Serum concentration, rabbit 4, 72.00 h",60 nM
same,concentration at 0.75 h,"[4]; New Zealand white, Serum concentration, rabbit 5, 0.75 h",1860 nM
same,concentration at 72.03 h,"[4]; New Zealand white, Serum concentration, rabbit 5, 72.03 h",34 nM
same,concentration at 0.57 h,"[4]; New Zealand white, Serum concentration, rabbit 6, 0.57 h",1670 nM
same,concentration at 71.97 h,"[4]; New Zealand white, Serum concentration, rabbit 6, 71.97 h",31 nM
same,concentration at 11.98 h,"[4]; New Zealand white, Serum concentration, rabbit 7, 11.98 h",840 nM
same,concentration at 168 h,"[4]; New Zealand white, Serum concentration, rabbit 7, 168.00 h",5.3 nM
same,concentration at 12.02 h,"[4]; New Zealand white, Serum concentration, rabbit 8, 12.02 h",520 nM
same,concentration at 167.92 h,"[4]; New Zealand white, Serum concentration, rabbit 8, 167.92 h",4.3 nM
same,concentration at 11.97 h,"[4]; New Zealand white, Serum concentration, rabbit 9, 11.97 h",590 nM
same,concentration at 168 h,"[4]; New Zealand white, Serum concentration, rabbit 9, 168.00 h",3 nM
same,concentration at 671.96 h,"[4]; New Zealand white, Serum concentration, rabbit 10, 671.96 h",< 0.24 nM
same,concentration at 672 h,"[4]; New Zealand white, Serum concentration, rabbit 11, 672.00 h",< 0.24 nM
same,concentration at 671.83 h,"[4]; New Zealand white, Serum concentration, rabbit 12, 671.83 h",< 0.24 nM
